Experimental data reported in patent US10653617B2, “Compositions of additives to ginger-curcumin to facilitate growth of fibroblasts and collagen” (priority 2016, dated 2020).

How the values were obtained:
[1] = tested on: Human dermal fibroblasts; assay: Fibroblast cytotoxicity assay; format: cell-based; conditions: 72 hours; for growth-inhibition/cytotoxicity of the individual agent: agent tested individually over a wide range of concentrations; for concentration up to which non-toxic (all concentrations evaluated): agent tested individually, KBM, 1.5 mM calcium
Experimental: Human dermal fibroblasts were isolated from skin biopsies and grown in monolayer culture using DMEM supplemented with 10% fetal bovine serum as culture medium. Growth was at 37° C. in a humidified atmosphere containing 5% CO2 and 95% air. For experimental studies, cells were plated at 5×10^4 cells per well in wells of a 24-well culture dish in the same culture medium. One day later, cells were washed and the DMEM culture medium was replaced with KBM. Human dermal fibroblasts were treated with culture medium (KBM) supplemented with a concentration of calcium (1.5 mM) that supports fibroblast survival on its own. Reagents to be tested for cytotoxicity and/or growth inhibition were included in the culture medium and the cells incubated for 72 hours.

[2] = tested on: Human dermal fibroblasts; conditions: cited from earlier work

## CCCCCCCCCCCCOS(=O)(=O)[O-].[Na+] [SLS, sodium lauryl sulfate]
[1]
  growth-inhibition/cytotoxicity of the individual agent: levels that produced growth-inhibition/cytotoxicity were achieved

## CC1=C(/C=C/C(C)=C/C=C/C(C)=C/C(=O)O)C(C)(C)CCC1 [ATRA, all-trans retinoic acid]
[2]
  concentrations that are effective in this assay: 1 to 10 µM

## O=C1O[C@H]([C@@H](O)CO)C(O)=C1O [L-ascorbic acid]
[1]
  concentration up to which non-toxic (all concentrations evaluated): up to 200 μg/mL

## CS(C)(=O)=O [MSM, dimethyl sulfone]
[1]
  growth-inhibition/cytotoxicity of the individual agent: levels that produced growth-inhibition/cytotoxicity were achieved

## hyaluronan
[1]
  concentration up to which non-toxic (all concentrations evaluated): ≤ 20000 ng/mL

## COc1cc(/C=C/C(=O)CC(=O)/C=C/c2ccc(O)c(OC)c2)ccc1O [curcumin]
[1]
  growth-inhibition/cytotoxicity of the individual agent: levels that produced growth-inhibition/cytotoxicity were achieved
